Data reported in paper PMC9823097, “Dysregulation of PRMT5 in chronic lymphocytic leukemia promotes progression with high risk of Richter’s transformation” (Nature Communications, 2023).
Values joined by “and” are separate entries in the source; they are usually repeats but may differ in a detail not shown here. Equal values may be shown once.

Assays:
HG3 CLL cell line = assay: Global symmetric dimethyl arginine (SDMA) western blot, HG3; type: cell-based; conditions: HG3, 72 h treatment
Description: Proteins extracted from whole-cell lysates were resolved by SDS-PAGE and transferred on nitrocellulose membrane as previously described. CpG685 oligonucleotide was obtained from the OSU Cytogenetics Core Lab. Antibodies used for immunoblots included anti-human PRMT5 (Abcam #ab109451), GAPDH (Millipore Sigma #MAB374), SDMA (Cell Signaling Technology #13222), c-Myc (Cell Signaling Technology #5605S), and β-Actin (Cell Signaling Technology #4967S). Cas9-mediated doxycycline-inducible knockout of PRMT5 utilized a targeted sgRNA (guide sequence: […], PAM: GGG).

[1] = tested on: Eµ-PRMT5/TCL1 Cd19+Cd5+ spleen cells engrafted into immunocompetent C57/BL6J mice; assay: Adoptive transfer of Eµ-PRMT5/TCL1 spleen cells into C57/BL6J mice, treatment study; type: in vivo
Experimental: For adoptive transfer, viable Cd19^+Cd5^+ cells (5 × 10^6) from the spleen of an Eµ-PRMT5/TCL1 transgenic mouse with active CLL-like leukemia (>80% circulating in peripheral blood) and palpable splenomegaly were engrafted by tail vein into immunocompetent C57/BL6J female mice. Engrafted mice were randomly assigned to treatment conditions: PRT382 10 mg/kg, EPZ015666 50 mg/kg, or vehicle (0.5% methylcellulose, 0.1% tween) at 1-week post engraftment. All treatments were administered by oral gavage 4 contiguous days per week (Mon-Thurs). Predefined euthanasia criteria for mice in all transgenic colonies and murine transplant models were followed and included lethargy, impaired motility, splenomegaly, enlarged lymph nodes and/or superficial lymphoid tumors greater than 1.6 cm in diameter (or cumulative diameter of 1.6 cm if multiple tumors), decrease in body weight (>20%), ruffled fur, hunched back, failure to nest, and loss of appetite.

Mec-1 cells = assay: Cell growth curves over 12 days, Mec-1; type: cell-based
Experimental: Live cells/mL were counted on days 3, 6, 10, and 12. […] The split factor was calculated at indicated time points by dividing the counted cells/mL by 3E5. Cell growth was extrapolated over time by multiplying the subsequent cell count by the previous split factor. Cell growth is plotted as fold change relative to DMSO-treated cells.

[2] = Mec-1, continuous exposure over 12 days

CON=c1nc[nH]c2c1ccn2[C@@H]1O[C@H]([C@H](O)c2ccc(Cl)c(Cl)c2)[C@@H](O)[C@H]1O.Cl [PRT382, (2 R,3 S,4 R,5 R)-2-[(R)-(3,4-dichlorophenyl)-hydroxy-methyl]-5-[(4Z)-4-methoxyimino-1H-pyrrolo[2,3-d]pyrimidin-7-yl]tetrahydrofuran-3,4-diol hydrochloride]
lowest dose with decrease in global SDMA residues (HG3 CLL cell line): 100 nM | Week 1 CD19+/B220dim ([1]; Figure 7F, per mouse, week 1, in % (unit assumed)): 14.94 and 11.13 and 14.86 and 15.24 and 10.03 and 10.93 and 22.62 and 11.33 and 10.17 and 14.2 | Week 2 CD19+/B220dim ([1]; Figure 7F, per mouse, week 2, in % (unit assumed)): 13.43 and 12.86 and 10.14 and 23.82 and 13.56 and 16.79 and 25.72 and 21.61 and 19.95 and 20.17 | Week 3 CD19+/B220dim ([1]; Figure 7F, per mouse, week 3, in % (unit assumed)): 26.89 and 23.33 and 20.67 and 34.07 and 24.63 and 26.03 and 34.34 and 21.21 and 26.17 and 22.42 | Week 4 CD19+/B220dim ([1]; Figure 7F, per mouse, week 4, in % (unit assumed)): 41.39 and 38.3 and 24.43 and 39.63 and 41.81 and 49.51 and 51.09 and 40.09 and 18.3 and 35.71 | Week 5 CD19+/B220dim ([1]; Figure 7F, per mouse, week 5): 59.47 and 50.76 and 31.63 and 42.2 and 57.43 and 71.78 and 71.22 and 54.4 and 38.84 and 43.16 | Week 6 CD19+/B220dim ([1]; Figure 7F, per mouse, week 6, in % (unit assumed)): 77.7 and 46.25 and 37.53 and 72.87 and 45.24 and 51.74 and 53.46 and 63.05 and 57.02 and 47.66 | Week 7 CD19+/B220dim ([1]; Figure 7F, per mouse, week 7, in % (unit assumed)): 84.05 and 64.76 and 55.81 and 74.55 and 67.6 and 65.33 and 67.88 and 74.71 and 65.7 and 77.54 | Week 8 CD19+/B220dim ([1]; Figure 7F, per mouse, week 8): 89.79 and 78.47 and 68.08 and 80.27 and 72.86 and 72.85 and 63.41 and 82.55 and 81.05 and 82.92 | Week 9 CD19+/B220dim ([1]; Figure 7F, per mouse, week 9): 91.31 and 75.18 and 73.48 and 85.11 and 81.63 and 77.6 and 71.82 and 88.55 and 87.37 and 84.51 | Week 10 CD19+/B220dim ([1]; Figure 7F, per mouse, week 10, in % (unit assumed)): 76.49 and 84.3 and 76.64 and 83.91 and 87.5 and 87.78 and 77.93 and 88.18 and 89.1 and 91.37 | Week 11 CD19+/B220dim ([1]; Figure 7F, per mouse, week 11, in % (unit assumed)): 84.23 and 77.24 and 87.2 and 87.38 and 85.21 and 81.05 and 94.62 and 92.7 and 90.88 | Week 12 CD19+/B220dim ([1]; Figure 7F, per mouse, week 12): 87.17 and 83.54 and 90.72 and 88.55 and 85.11 | Week 13 CD19+/B220dim ([1]; Figure 7F, per mouse, week 13, in % (unit assumed)): 69.75 and 81.14 and 92.04 and 85.97 and 82.89 | Endpoint ([1]; Figure 7G, survival endpoint indicator, per mouse): 1 | Days since enrollment ([1]; Figure 7G, survival, per mouse): 64 days and 85 days and 92 days and 71 days and 84 days | Spleen weight ([1]; Figure 7H, per mouse): 0.86 g and 1.01 g and 0.37 g and 0.52 g and 0.24 g and 0.7 g and 0.84 g | survival compared to EPZ015666 or vehicle ([1]; PRT382 10 mg/kg): significant extension in survival | hazard ratio, PRT382 vs EPZ015666 (Mantel–Cox) ([1]; PRT382 10 mg/kg vs EPZ015666 50 mg/kg, survival): 0.65 | PRMT5 target modulation, immunoblot of splenic B cells ([1]; PRT382 10 mg/kg, EPZ015666 50 mg/kg): confirmed PRMT5 target modulation | Median survival post-enrollment ([1]; PRT382 10 mg/kg, EPZ015666 50 mg/kg, oral gavage 4 contiguous days per week): 77 days | hazard ratio, PRT382 vs vehicle (Mantel–Cox) ([1]; PRT382 10 mg/kg, survival): 0.21 | spleen weight and volume compared to EPZ015666 or vehicle ([1]; at ERC): significantly reduced weight and volume | leukemic expansion across non-lymphoid tissues (histopathology, liver) ([1]; compared with vehicle or EPZ015666-treated mice): decrease in leukemic expansion | Spleen volume ([1]; individual mice, Supplemental Figure 6F): 645.24 mm3 and 1183.96 mm3 and 457.289 mm3 and 271.152 mm3 and 253.789 mm3 and 859.967 mm3 and 562.493 mm3 | rate of peripheral disease (CLL-like cells in peripheral blood) ([1]; weeks 2-7 post engraftment, compared to EPZ015666 or vehicle): reduced the rate of peripheral disease | anti-proliferative potency compared to JNJ-64619178, LLY-283, and PF-06855800 (Mec-1 cells; Mec-1): similar-to-reduced | Rep 1 Live Cells [Fold Change] (Mec-1 cells; Mec-1, 1 nM, day 0): 1 Fold Change | Rep 2 Live Cells [Fold Change] (Mec-1 cells; Mec-1, 1 nM, day 0): 1 Fold Change | Rep 3 Live Cells [Fold Change] (Mec-1 cells; Mec-1, 1 nM, day 0): 1 Fold Change | Rep 1 Live Cells [Fold Change] (Mec-1 cells; Mec-1, 1 nM, day 3): 5.48 Fold Change | Rep 2 Live Cells [Fold Change] (Mec-1 cells; Mec-1, 1 nM, day 3): 7.38 Fold Change | Rep 3 Live Cells [Fold Change] (Mec-1 cells; Mec-1, 1 nM, day 3): 6.82 Fold Change | Rep 1 Live Cells [Fold Change] (Mec-1 cells; Mec-1, 1 nM, day 6): 47.7 Fold Change | Rep 2 Live Cells [Fold Change] (Mec-1 cells; Mec-1, 1 nM, day 6): 61 Fold Change | Rep 3 Live Cells [Fold Change] (Mec-1 cells; Mec-1, 1 nM, day 6): 62.4 Fold Change | Rep 1 Live Cells [Fold Change] (Mec-1 cells; Mec-1, 1 nM, day 10): 655 Fold Change | Rep 2 Live Cells [Fold Change] (Mec-1 cells; Mec-1, 1 nM, day 10): 809 Fold Change | Rep 3 Live Cells [Fold Change] (Mec-1 cells; Mec-1, 1 nM, day 10): 898 Fold Change | Rep 1 Live Cells [Fold Change] (Mec-1 cells; Mec-1, 1 nM, day 12): 2650 Fold Change | Rep 2 Live Cells [Fold Change] (Mec-1 cells; Mec-1, 1 nM, day 12): 2940 Fold Change | Rep 3 Live Cells [Fold Change] (Mec-1 cells; Mec-1, 1 nM, day 12): 4480 Fold Change | Rep 1 Live Cells [Fold Change] (Mec-1 cells; Mec-1, 10 nM, day 0): 1 Fold Change | Rep 2 Live Cells [Fold Change] (Mec-1 cells; Mec-1, 10 nM, day 0): 1 Fold Change | Rep 3 Live Cells [Fold Change] (Mec-1 cells; Mec-1, 10 nM, day 0): 1 Fold Change | Rep 1 Live Cells [Fold Change] (Mec-1 cells; Mec-1, 10 nM, day 3): 8.13 Fold Change | Rep 2 Live Cells [Fold Change] (Mec-1 cells; Mec-1, 10 nM, day 3): 8.43 Fold Change | Rep 3 Live Cells [Fold Change] (Mec-1 cells; Mec-1, 10 nM, day 3): 7.78 Fold Change | Rep 1 Live Cells [Fold Change] (Mec-1 cells; Mec-1, 10 nM, day 6): 70.5 Fold Change | Rep 2 Live Cells [Fold Change] (Mec-1 cells; Mec-1, 10 nM, day 6): 65.2 Fold Change | Rep 3 Live Cells [Fold Change] (Mec-1 cells; Mec-1, 10 nM, day 6): 77.4 Fold Change | Rep 1 Live Cells [Fold Change] (Mec-1 cells; Mec-1, 10 nM, day 10): 909 Fold Change | Rep 2 Live Cells [Fold Change] (Mec-1 cells; Mec-1, 10 nM, day 10): 1080 Fold Change | Rep 3 Live Cells [Fold Change] (Mec-1 cells; Mec-1, 10 nM, day 10): 887 Fold Change | Rep 1 Live Cells [Fold Change] (Mec-1 cells; Mec-1, 10 nM, day 12): 3770 Fold Change | Rep 2 Live Cells [Fold Change] (Mec-1 cells; Mec-1, 10 nM, day 12): 3720 Fold Change | Rep 3 Live Cells [Fold Change] (Mec-1 cells; Mec-1, 10 nM, day 12): 6410 Fold Change | Rep 1 Live Cells [Fold Change] (Mec-1 cells; Mec-1, 100 nM, day 0): 1 Fold Change | Rep 2 Live Cells [Fold Change] (Mec-1 cells; Mec-1, 100 nM, day 0): 1 Fold Change | Rep 3 Live Cells [Fold Change] (Mec-1 cells; Mec-1, 100 nM, day 0): 1 Fold Change | Rep 1 Live Cells [Fold Change] (Mec-1 cells; Mec-1, 100 nM, day 3): 6.3 Fold Change | Rep 2 Live Cells [Fold Change] (Mec-1 cells; Mec-1, 100 nM, day 3): 5.17 Fold Change | Rep 3 Live Cells [Fold Change] (Mec-1 cells; Mec-1, 100 nM, day 3): 4.6 Fold Change | Rep 1 Live Cells [Fold Change] (Mec-1 cells; Mec-1, 100 nM, day 6): 14 Fold Change | Rep 2 Live Cells [Fold Change] (Mec-1 cells; Mec-1, 100 nM, day 6): 17.1 Fold Change | Rep 3 Live Cells [Fold Change] (Mec-1 cells; Mec-1, 100 nM, day 6): 13.3 Fold Change | Rep 1 Live Cells [Fold Change] (Mec-1 cells; Mec-1, 100 nM, day 10): 63 Fold Change | Rep 2 Live Cells [Fold Change] (Mec-1 cells; Mec-1, 100 nM, day 10): 155 Fold Change | Rep 3 Live Cells [Fold Change] (Mec-1 cells; Mec-1, 100 nM, day 10): 73.7 Fold Change | Rep 1 Live Cells [Fold Change] (Mec-1 cells; Mec-1, 100 nM, day 12): 100 Fold Change | Rep 2 Live Cells [Fold Change] (Mec-1 cells; Mec-1, 100 nM, day 12): 297 Fold Change | Rep 3 Live Cells [Fold Change] (Mec-1 cells; Mec-1, 100 nM, day 12): 92.2 Fold Change | Rep 1 Live Cells [Fold Change] (Mec-1 cells; Mec-1, 1 µM, day 0): 1 Fold Change | Rep 2 Live Cells [Fold Change] (Mec-1 cells; Mec-1, 1 µM, day 0): 1 Fold Change | Rep 3 Live Cells [Fold Change] (Mec-1 cells; Mec-1, 1 µM, day 0): 1 Fold Change | Rep 1 Live Cells [Fold Change] (Mec-1 cells; Mec-1, 1 µM, day 3): 3.87 Fold Change | Rep 2 Live Cells [Fold Change] (Mec-1 cells; Mec-1, 1 µM, day 3): 4.23 Fold Change | Rep 3 Live Cells [Fold Change] (Mec-1 cells; Mec-1, 1 µM, day 3): 5.4 Fold Change | Rep 1 Live Cells [Fold Change] (Mec-1 cells; Mec-1, 1 µM, day 6): 7.67 Fold Change | Rep 2 Live Cells [Fold Change] (Mec-1 cells; Mec-1, 1 µM, day 6): 5.09 Fold Change | Rep 3 Live Cells [Fold Change] (Mec-1 cells; Mec-1, 1 µM, day 6): 4.33 Fold Change | Rep 1 Live Cells [Fold Change] (Mec-1 cells; Mec-1, 1 µM, day 10): 8.99 Fold Change | Rep 2 Live Cells [Fold Change] (Mec-1 cells; Mec-1, 1 µM, day 10): 4.86 Fold Change | Rep 3 Live Cells [Fold Change] (Mec-1 cells; Mec-1, 1 µM, day 10): 2.73 Fold Change | Rep 1 Live Cells [Fold Change] (Mec-1 cells; Mec-1, 1 µM, day 12): 3.31 Fold Change | Rep 2 Live Cells [Fold Change] (Mec-1 cells; Mec-1, 1 µM, day 12): 4.55 Fold Change | Rep 3 Live Cells [Fold Change] (Mec-1 cells; Mec-1, 1 µM, day 12): 1.12 Fold Change | dose at which growth inhibition begins (Mec-1 cells; [2]): 100 nM | effect on growth potential (cell growth) (Mec-1 cells; [2]): time and dose-dependent growth inhibition
